Reference: US20100016396A1, “PYRAZOLE COMPOUND” (priority 2007, published 2010)

Biological target: T1, PPARγ-RXRα heterodimer (Homo sapiens, UniProt P37231)
T1 construct: expressed in transfected cells; host or cells: CHO-K1
T1 sequence (P37231 1-505): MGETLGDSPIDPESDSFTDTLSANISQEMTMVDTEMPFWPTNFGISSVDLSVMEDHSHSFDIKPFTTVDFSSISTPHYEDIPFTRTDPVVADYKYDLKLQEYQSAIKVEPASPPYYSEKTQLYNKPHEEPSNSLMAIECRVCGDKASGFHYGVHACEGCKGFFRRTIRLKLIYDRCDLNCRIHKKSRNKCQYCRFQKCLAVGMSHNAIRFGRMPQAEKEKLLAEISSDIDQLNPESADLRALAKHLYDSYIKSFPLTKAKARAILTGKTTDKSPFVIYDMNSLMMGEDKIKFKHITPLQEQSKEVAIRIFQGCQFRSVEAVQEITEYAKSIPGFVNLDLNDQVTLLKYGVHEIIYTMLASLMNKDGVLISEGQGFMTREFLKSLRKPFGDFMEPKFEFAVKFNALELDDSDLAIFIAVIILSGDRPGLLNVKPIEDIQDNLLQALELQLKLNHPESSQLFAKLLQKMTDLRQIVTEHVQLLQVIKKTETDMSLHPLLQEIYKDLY
T1 sequence (P19793 1-462 partner): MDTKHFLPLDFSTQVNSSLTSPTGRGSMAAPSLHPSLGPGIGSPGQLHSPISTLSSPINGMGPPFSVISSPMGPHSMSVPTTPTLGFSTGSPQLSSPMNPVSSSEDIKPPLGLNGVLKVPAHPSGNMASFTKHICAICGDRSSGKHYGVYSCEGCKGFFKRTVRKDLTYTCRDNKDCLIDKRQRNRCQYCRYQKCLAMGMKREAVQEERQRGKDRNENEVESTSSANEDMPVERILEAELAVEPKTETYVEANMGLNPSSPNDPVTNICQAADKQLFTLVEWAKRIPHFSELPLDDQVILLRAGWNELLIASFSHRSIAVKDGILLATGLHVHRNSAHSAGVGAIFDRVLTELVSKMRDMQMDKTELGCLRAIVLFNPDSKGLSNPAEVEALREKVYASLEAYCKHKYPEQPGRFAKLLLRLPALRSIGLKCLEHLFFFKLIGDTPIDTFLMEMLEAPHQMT
Test: PPARγ-RXRα heterodimer ligand activity (luciferase reporter in PPARγ:RXRα:4ERPP/CHO-K1 cells)
Format: cell-based
Conditions: luciferase induction ratio, 1 day culture, concentration showing 50% of the maximum induction ratio
Experimental: PPARγ:RXRα:4ERPP/CHO-K1 cells described in WO03/099793 were cultured in hamF12 medium [manufactured by Life Technologies, Inc., USA] supplemented with 10% fetal bovine serum [manufactured by Life Technologies, Inc., USA], plated on a 96 well white half area plate [manufactured by Corning Coster Corporation, USA] at 1×10^4 cells/well and cultured overnight in a carbon dioxide gas incubator at 37° C.
The medium was removed from the 96 well white half area plate, 45 μl of hamF12 medium containing 0.1% fatty acid-free bovine serum albumin (BSA) and 5 μl of a test compound were added, and the cells were cultured in a carbon dioxide gas incubator at 37° C. for 1 day. The medium was removed, and 20 μl of PicaGene 7.5 (manufactured by Wako Pure Chemical Industries, Ltd.) diluted 2-fold with HBSS (HANKS' BALANCED SALT SOLUTION) [manufactured by BIO WHITTAKER, USA] was added. After stirring, the luciferase activity was measured using a 1420 ARVO Multilabel Counter [manufactured by Perkin Elmer Inc., USA].
The induction ratio was calculated from the luciferase activity of each test compound relative to the luciferase activity of the test compound non-administration group as 1. The concentration of the test compound and the induction ratio were analyzed using PRISM [manufactured by GraphPad Software, Inc., USA] and EC50 value (concentration of compound showing 50% of the maximum induction ratio) of the test compound was calculated.

SMILES	EC50 [nM]
Cc1nn(C)c(Oc2cc(O[C@@H](C)C(=O)O)c(Cl)cc2Cl)c1C [Example 1, (2S)-2-{2,4-dichloro-5-[(1,3,4-trimethyl-1H-pyrazol-5-yl)oxy]phenoxy}propionic acid]	24
C[C@H](Oc1cc(Oc2c3c(nn2C)CCCC3)c(Cl)cc1Cl)C(=O)O [Example 31, (2S)-2-{2,4-dichloro-5-[(2-methyl-4,5,6,7-tetrahydro-2H-indazol-3-yl)oxy]phenoxy}propionic acid]	9.3
Cc1c(C(F)(F)F)nn(C)c1Oc1cc(O[C@@H](C)C(=O)O)c(Cl)cc1Cl [Example 74, (2S)-2-(2,4-dichloro-5-{[1,4-dimethyl-3-(trifluoromethyl)-1H-pyrazol-5-yl]oxy}phenoxy)propionic acid]	13
CCc1c(C(F)(F)F)nn(C)c1Oc1cc(O[C@@H](C)C(=O)O)c(Cl)cc1Cl [Example 76, (2S)-2-(2,4-dichloro-5-{[4-ethyl-1-methyl-3-(trifluoromethyl)-1H-pyrazol-5-yl]oxy}phenoxy)propionic acid]	9.9
Cc1nn(C)c(Oc2cc(O[C@@H](C)C(=O)O)c(Cl)cc2Cl)c1/C=N/O [Example 104, (2S)-2-[2,4-dichloro-5-({4-[(E)-(hydroxyimino)methyl]-1,3-dimethyl-1H-pyrazol-5-yl}oxy)phenoxy]propionic acid]	25
Cc1nn(C)c(Oc2cc(O[C@@H](C)C(=O)O)c(Cl)cc2Cl)c1C#N [Example 106, (2S)-2-{2,4-dichloro-5-[(4-cyano-1,3-dimethyl-1H-pyrazol-5-yl)oxy]phenoxy}propionic acid]	120
Cc1nn(C)c(Sc2cc(O[C@@H](C)C(=O)O)c(Cl)cc2Cl)c1C [Example 115, (2S)-2-{2,4-dichloro-5-[(1,3,4-trimethyl-1H-pyrazol-5-yl)thio]phenoxy}propionic acid]	10
Cc1nn(C)c(Sc2cc(O[C@@H](C)C(=O)O)c(Cl)cc2Cl)c1C#N [Example 210, (2S)-2-{2,4-dichloro-5-[(4-cyano-1,3-dimethyl-1H-pyrazol-5-yl)thio]phenoxy}propionic acid]	9.9
Cc1cc(Br)c(O[C@@H](C)C(=O)O)cc1Oc1c(C#N)c(C2CC2)nn1C [Example 256, (2S)-2-{2-bromo-5-[(4-cyano-3-cyclopropyl-1-methyl-1H-pyrazol-5-yl)oxy]-4-methylphenoxy}propionic acid]	22
CCNC(=O)OCCCc1c(C)nn(C)c1Oc1cc(O[C@@H](C)C(=O)O)c(Cl)cc1Cl [Example 298, (2S)-2-(2,4-dichloro-5-{[4-(3-{[(ethylamino)carbonyl]oxy}propyl)-1,3-dimethyl-1H-pyrazol-5-yl]oxy}phenoxy)propionic acid]	17

These reach a lower EC50. Values come first.

EC50 [nM]	SMILES
5.8	C[C@H](Oc1cc(Oc2c3ccccc3nn2C)c(Cl)cc1Cl)C(=O)O [Example 30, (2S)-2-{2,4-dichloro-5-[(2-methyl-2H-indazol-3-yl)oxy]phenoxy}propionic acid]
5	C=Cc1c(C)nn(C)c1Oc1cc(O[C@@H](C)C(=O)O)c(Cl)cc1Cl [Example 14, (2S)-2-{2,4-dichloro-5-[(1,3-dimethyl-4-vinyl-1H-pyrazol-5-yl)oxy]phenoxy}propionic acid]
4.6	C=Cc1c(C(C)C)nn(C)c1Oc1cc(O[C@@H](C)C(=O)O)c(Cl)cc1Cl [Example 43, (2S)-2-{2,4-dichloro-5-[(3-isopropyl-1-methyl-4-vinyl-1H-pyrazol-5-yl)oxy]phenoxy}propionic acid]
4.1	CON=Cc1c(C)nn(C)c1Oc1cc(O[C@@H](C)C(=O)O)c(Cl)cc1Cl [Example 123, (2S)-2-[2,4-dichloro-5-({4-[(methoxyimino)methyl]-1,3-dimethyl-1H-pyrazol-5-yl}oxy)phenoxy]propionic acid]
3.7	C=Cc1c(C(F)(F)F)nn(C)c1Oc1cc(O[C@@H](C)C(=O)O)c(Cl)cc1Cl [Example 20, (2S)-2-(2,4-dichloro-5-{[1-methyl-3-(trifluoromethyl)-4-vinyl-1H-pyrazol-5-yl]oxy}phenoxy)propionic acid]
3.1	Cc1nn(C)c(Oc2cc(O[C@@H](C)C(=O)O)c(Cl)cc2Cl)c1C=NOCc1ccccc1 [Example 125, (2S)-2-{5-[(4-{[(benzyloxy)imino]methyl}-1,3-dimethyl-1H-pyrazol-5-yl)oxy]-2,4-dichlorophenoxy}propionic acid]
2.4	C=Cc1c(CCC)nn(C)c1Oc1cc(O[C@@H](C)C(=O)O)c(Cl)cc1Cl [Example 41, (2S)-2-{2,4-dichloro-5-[(1-methyl-3-propyl-4-vinyl-1H-pyrazol-5-yl)oxy]phenoxy}propionic acid]
2	CCC/C=C/c1c(C)nn(C)c1Oc1cc(O[C@@H](C)C(=O)O)c(Cl)cc1Cl [Example 89, (2S)-2-[2,4-dichloro-5-({1,3-dimethyl-4-[(1E)-1-penten-1-yl]-1H-pyrazol-5-yl}oxy)phenoxy]propionic acid]
